Measured values taken from patent publication US9011826B2, “Cosmetic and dermatological formulations including isononyl benzoate” (Evonik Degussa GmbH, priority 2007, dated 2015).

Columns and labels:
[1] = Dissolving power for crystalline UV light protection filters; assay type: physicochemical; conditions: 22° C., percent by weight; for Dissolving power (maximum dissolved amount of UV filter) BP-3: Benzophenone-3 dissolved in the product; for Dissolving power (maximum dissolved amount of UV filter) BEMT: Bis-ethylhexyloxyphenol Methoxyphenyl Triazine dissolved in the product; for Dissolving power (maximum dissolved amount of UV filter) BMDM: Butyl Methoxydibenzoylmethane dissolved in the product; for Dissolving power (maximum dissolved amount of UV filter) EHT: Octyl Triazone dissolved in the product
Source text: Four representative UV-A or UV-B light protection filters were chosen as representatives for testing the dissolving power for crystalline UV light protection filters in isononyl benzoate (Vestinol® INB, Evonik Oxeno GmbH). These were Benzophenone-3 (2-hydroxy-4-methoxy-benzophenone, BP-3), Butyl Methoxydibenzoylmethane (BMDM), Octyl Triazone (2,4,6-trianilino-p-(carbo-2′-ethylhexyl-1′-oxy)-1,3,5-triazine, EHT) and bemotrizinol (Bis-ethylhexyloxyphenol Methoxyphenyl Triazine, BEMT).
For determination of the dissolving power for these […] UV light protection filters, in each case a particular amount (50 g) of one of the compounds according to the invention was initially introduced into the dissolving vessel and temperature-controlled at 22° C. 1 percent by weight of a UV light protection filter was then added and the mixture was stirred until this amount had dissolved completely and homogeneously. This operation was repeated until the maximum amount of the UV light protection filter which can be dissolved had been exceeded. For complete dissolving, a relatively long stirring time of several hours was often necessary at higher concentrations.
Once the maximum concentration had been roughly determined in this manner, the test was repeated with smaller weights of the UV light protection filter for fine determination of the concentration range around this maximum concentration.
The compound Tegosoft® TN (C12-15 Alkyl Benzoate) was used as a reference.

[2] = known solvents (lipids) for this UV-B filter; cited from earlier work

Compound | Dissolving power (maximum dissolved amount of UV filter) BP-3 [1] | Dissolving power (maximum dissolved amount of UV filter) BEMT [1] | Dissolving power (maximum dissolved amount of UV filter) BMDM [1] | Dissolving power (maximum dissolved amount of UV filter) EHT [1] | Maximum amount of the filter dissolved by known solvents [2]
CC(C)CCCCCCOC(=O)c1ccccc1 [Isononyl Benzoate, isononyl benzoate] | 21% | 12% | 14% | 6% | –
C12-15 Alkyl Benzoate [Tegosoft ® TN, reference compound] | 15% | 9% | 13% | 4% | –
CCCCC(CC)COC(=O)c1ccc(Nc2nc(Nc3ccc(C(=O)OCC(CC)CCCC)cc3)nc(Nc3ccc(C(=O)OCC(CC)CCCC)cc3)n2)cc1 (stereo not drawn) [UVINUL™ T 150, 4,4′,4″-(1,3,5-Triazine-2,4,6-triyltriimino)-tris-benzoic acid tris(2-ethylhexyl ester)] | – | – | – | – | approx. 15 wt. %
